Test results: patent publication US6492328B2, “Novispirins: antimicrobial peptides” (priority 2000, dated 2002)
Where two headings read alike, the source gives them in different places. Where no end group is shown, it is not given here.

Experiments:
[1] = test system: E. coli ML 35P; type: cell-based, Escherichia coli; details: mean ± SEM, n = 3
Description: Antimicrobial activity. Several different methods were used to examine the antimicrobial properties of novispirins, including: a) two-stage radial diffusion assays; b) colony counting assays; and c) standard microbroth dilution assays.
Antimicrobial activity was tested in media with low, normal or high salinity. In radial diffusion assays, this was accomplished by using a low salt “basic medium” containing 0.3 mg of trypticase soy broth powder/ml of 10 mM sodium phosphate buffer, pH 7.4. Media with “normal” or “high” salinity were prepared by supplementing the basic medium with 100 mM NaCl to obtain media with normal salinity, or with 175-200 mM NaCl to obtain high salt media. Retention of activity against P. aeruginosa in high salt media is important because airway fluids from cystic fibrosis patients are reported to show hypersalinity, and other sites—including skin surfaces surfaces and the urinary bladder—may have locally high salt concentrations.
The relative activities of ovispirin and the novispirins against two organisms, E. coli and a multi-resistant strain of P. aeruginosa, are shown in FIG. 1. The MICs were obtained by radial diffusion assays performed under low, normal, and high salt conditions (which are denoted along the X-axis as 0, 100 and 200 mM NaCl, respectively).
Table 1 compares the activity of novispirins against these Gram-negative bacteria with its activity against Listeria monocytogenes, Staphylococcus aureus and C. albicans. […] Note that novispirins show activity against these Gram-positive bacteria when tested in physiological (100 mM NaCl) salt concentrations, and also that Novispirin G10 is quite active against C. albicans. Although neither ovispirin nor novispirins retained activity against C. albicans or the Gram positives under very high salt conditions (200 mM NaCl), they remained active against the Gram-negatives under these conditions. Consequently, even if the airways' NaCl concentrations are exceptionally high in CF patients, this factor will not impair the ability of ovispirin or novispirins to kill P. aeruginosa.

[2] = test system: K. pneumoniae; assay: Two stage radial diffusion assay with 10 mM HEPES, G10 variants (Table 8); type: cell-based; details: mean ± SEM, n = 3, in µg/mL
From the text: (§1) Amidation (—NH2) of the carboxy terminus in some of the novispirin G10 variants was designed to increase overall positive charge. The sequences of these peptides and their net charge is shown below in Table 7. The fractional (and pH dependent) charge on histidine12 was ignored in this calculation.
(§2) In Table 8, MIC signifies minimal inhibitory concentration, as determined by two stage radial diffusion assays. […] Shaded boxes show results that represent a significant improvement of activity (p<0.01 by t-test), relative to novispirin G10. […] None of the above G10 novispirin derivatives caused any hemolysis of human red blood cells, even when tested at 80 μg/ml. It is likely that other cationic amino acids (e.g., lysine, ornithine, etc) could also be used in position 12 to achieve better activity in the presence of calcium and magnesium ions.

[3] = test system: S. aureus; assay: as above; type: cell-based; details: mean ± SEM, n = 3, in µg/mL
From the text: as §1, §2

[4] = test system: P. aeruginosa; assay: as above; type: cell-based; details: mean ± SEM, n = 3, in µg/mL
From the text: as §1, §2

[5] = test system: E. coli; assay: as above; type: cell-based; details: mean ± SEM, n = 3, in µg/mL
From the text: as §1, §2

[6] = test system: C. trachomatis serovar E; assay: McCoy cell shell vial assay, inclusion-forming units; type: cell-based, Chlamydia trachomatis; details: 100 μg/ml, pre-incubation assays
Description: (§3) C. trachomatis serovar L2 causes invasive LGV, whereas serovars D and E represent typical genital strains. The effect of G-10 on Chlamydia trachomatis serovars (L2, D and E) was determined using standard and modified McCoy cell shell vial assays and varying concentrations of peptide. In the standard assay, the Chlamydia/peptide mixture was pre-incubated for 2 hr., then removed from the host cell monolayer before the 48-hr. incubation. In the modified assay, the pre-incubation mixture was left on the monolayer for the 48 hr. incubation. In a third assay, G-10 and Chlamydia were mixed and infected to cell monolayers without pre-incubation, and examined after 48 hr. Inclusion-forming units (IFUs) were scored to measure the peptide's inhibitory effect.

[7] = test system: MRC-5 human lung fibroblasts; type: cell-based
From the text: FIG. 5 compares the cytotoxicity of these peptides for MRC-5 human lung fibroblasts.

[8] = test system: human red blood cells; type: cell-based
Description: Hemolytic Activity: This was tested by incubating various concentrations of peptide with a suspension (2.8% v/v) of washed human, murine, sheep or bovine red cells in PBS. After 30 min at 37C, the tubes were centrifuged and the percentage of total hemoglobin released to the supernatant was measured.
Similar results were obtained with murine red blood cells. In contrast, none of these peptides were appreciably hemolytic towards sheep or bovine red blood cells.

[9] = Acute toxicity studies in mice, intravenous; type: in vivo
Description: In vivo toxicity. Acute toxicity studies were performed in mice. 3/3 mice survived an intravenous dose of 10 mg novispirin G10/kg body weight, and 1/3 survived a dose of 20 mg/kg.

[10] = test system: C. trachomatis serovar D; assay: McCoy cell shell vial assay, inclusion-forming units; type: cell-based, Chlamydia trachomatis; parameters: dose or concentration left out as unconfirmed
Description: as §3

[11] = test system: C. trachomatis serovar L2; assay: as above; type: cell-based, Chlamydia trachomatis; parameters: dose or concentration left out as unconfirmed
Description: as §3

[12] = test system: S. maltophilia 42CK; assay: Novispirins vs S. maltophilia (Table 5); type: cell-based, Stenotrophomonas maltophilia; parameters: unit not given here; details: strain 42CK
Description: (§4) Microorganisms used in this study included 13 different Pseudomonas aeruginosa strains. The AML-654 and LZ-1 strains are recent clinical isolates from the UCLA Clinical Microbiology laboratory. Nine strains (5 mucoid, 4 nonmucoid) were recent CF isolates provided by Dr. Lisa Saiman. All of the P. aeruginosa strains except PAO-1 strain were resistant to multiple conventional antibiotics, and all 9 CF isolates were resistant to 250 μg/ml of tobramycin. We have also tested 5 strains each of Stenotrophomonas maltophilia and Burkholderia cepacia from CF patients (also provided by Dr. Lisa Saiman), two strains of Escherichia coli (ML-35p and DH-5a), and single strains of Staphylococcus aureus[MRSA (methicillin-resistant S. aureus)] and C. albicans.

[13] = test system: S. maltophilia 47CG; assay: Novispirins vs S. maltophilia (Table 5); type: cell-based, Stenotrophomonas maltophilia; parameters: unit not given here; details: strain 47CG
Description: as §4

[14] = test system: S. maltophilia 18CP; assay: Novispirins vs S. maltophilia (Table 5); type: cell-based, Stenotrophomonas maltophilia; parameters: unit not given here; details: strain 18CP
Description: as §4

[15] = test system: S. maltophilia 36CN; assay: Novispirins vs S. maltophilia (Table 5); type: cell-based, Stenotrophomonas maltophilia; parameters: unit not given here; details: strain 36CN
Description: as §4

[16] = test system: S. maltophilia 51Cl; assay: Novispirins vs S. maltophilia (Table 5); type: cell-based, Stenotrophomonas maltophilia; parameters: unit not given here; details: strain 51Cl
Description: as §4

KNLRRIIRKGIHIIKKYG-OH [G10 Novispirin, K N L R R I I R K G I H I I K K Y G]
MIC ([1]; Low Salt (+0 mM NaCl)): 0.1 ± 0.0 µg/mL
MIC ([1]; Normal salinity (+100 mM NaCl)): 0.1 ± 0.0 µg/mL
MIC ([1]; Very high salinity (+200 mM NaCl)): 1.8 ± 0.8 µg/mL
MIC ([2]; +1 mM Ca): >250
MIC ([2]; +1 mM Mg): >250
MIC ([2]; No Ca/Mg): 0.17 ± 0.03
MIC ([3]; +1 mM Ca): 99.0 ± 5.7
MIC ([3]; +1 mM Mg): >79
MIC ([3]; No Ca/Mg): 22.7 ± 2.1
MIC ([4]; +1 mM Ca): >250
MIC ([4]; +1 mM Mg): >250
MIC ([4]; No Ca/Mg): 0.17 ± 0.04
MIC ([5]; +1 mM Ca): 21.2 ± 0.36
MIC ([5]; +1 mM Mg): 20.3 ± 0.1
MIC ([5]; No Ca/Mg): 0.09 ± 0.02
inhibition of C. trachomatis serovar E [6]: completely inhibited
cytotoxicity for MRC-5 human lung fibroblasts [7]: virtually devoid of cytotoxicity
hemolytic activity for human red blood cells [8]: nonhemolytic
peak level ([9]; 10 mg/kg dose, if blood volume of a mouse is 5% of its mass): approximately 200 micrograms/ml
mice survived ([9]; intravenous dose of 10 mg/kg body weight): 3/3
mice survived ([9]; intravenous dose of 20 mg/kg): 1/3
serovar D IFUs reduced [10]: 99.4-100%
serovar L2 IFUs reduced [11]: 92.7-99.1%
activity vs S. maltophilia ([12]; +100 mM NaCl): 0.67
activity vs S. maltophilia ([12]; +175 mM NaCl): 10.0
activity vs S. maltophilia ([12]; LOW SALT CONDITIONS): 0.43
activity vs S. maltophilia ([13]; +100 mM NaCl): 0.68
activity vs S. maltophilia ([13]; +175 mM NaCl): 0.63
activity vs S. maltophilia ([13]; LOW SALT CONDITIONS): 0.08
activity vs S. maltophilia ([14]; +100 mM NaCl): 0.70
activity vs S. maltophilia ([14]; +175 mM NaCl): 1.30
activity vs S. maltophilia ([14]; LOW SALT CONDITIONS): 0.40
activity vs S. maltophilia ([15]; +100 mM NaCl): 0.29
activity vs S. maltophilia ([15]; +175 mM NaCl): 0.36
activity vs S. maltophilia ([15]; LOW SALT CONDITIONS): 0.15
activity vs S. maltophilia ([16]; +100 mM NaCl): 3.57
activity vs S. maltophilia ([16]; +175 mM NaCl): 8.18
activity vs S. maltophilia ([16]; LOW SALT CONDITIONS): 0.45
